Source: patent US8476194B2

Tests used:
Format in all cases: cell-based
[1] = system: Leptosphaeria nodorum (LEPTNO); assay: In vitro fungitoxicity assay against Leptosphaeria nodorum (LEPTNO) in copper-minus and copper-plus medium; conditions: CuCl2 10 μM, no test compound, across experiments
Phytophthora capsici = assay: In vitro fungitoxicity assay against Phytophthora capsici in copper-minus AS and copper-plus AS medium
Ustilago maydis = assay: In vitro fungitoxicity assay against Ustilago maydis in copper-minus and copper-plus medium; conditions: 1 μg/mL, calculated with Colby formula

| Compound | LEPTNO % Inhn. attributed to copper chloride alone [1] | % Inhn attributed to copper chloride alone (Phytophthora capsici; CuCl2 50 uM, no test compound, across experiments) | % Inhn Plus copper Predicted (Phytophthora capsici; 0.050 μg/mL, calculated with Colby formula) | % Inhn. Plus copper Predicted (Ustilago maydis) |
| --- | --- | --- | --- | --- |
| [Cl][Cu][Cl] [CuCl2, copper chloride] | 7.1 ± 6.0% | 4.5 ± 7.9% |  |  |
| C/C(=N\NC(=O)c1ccc(Cl)cc1)c1cc(F)cc(F)c1O [Compound 96] |  |  | 7.2% | 53.6% |
